# From the kinase profiling compilation of Christmann-Franck et al. (2016)
# How the values were obtained:
# Assay in all cases: radiometric filter-binding kinase assay, Kinase HotSpot
# Settings in all cases: compound 0.5 µM; ATP 10 µM
# AKT1 (human) = AKT1 (human) (UniProt P31749)
# BLK (human) = BLK (human) (UniProt P51451)
# CAMK2A (human) = CAMK2A (human) (UniProt Q9UQM7)
# CAMK2G (human) = CAMK2G (human) (UniProt Q13555)
# CDC42BPB (human) = CDC42BPB (human) (UniProt Q9Y5S2)
# CDK3 CCNE1 (human) = CDK3 CCNE1 (human) (UniProt Q00526+P24864)
# CSNK1G2 (human) = CSNK1G2 (human) (UniProt P78368)
# DAPK1 (human) = DAPK1 (human) (UniProt P53355)
# DCLK2 (human) = DCLK2 (human) (UniProt Q8N568)
# DMPK (human) = DMPK (human) (UniProt Q09013)
# FES (human) = FES (human) (UniProt P07332)
# FLT3 (human) = FLT3 (human) (UniProt P36888)
# GSK3A (human) = GSK3A (human) (UniProt P49840)
# HIPK3 (human) = HIPK3 (human) (UniProt Q9H422)
# JAK2 JH1 JH2 (human) = JAK2 JH1 JH2 (human) (UniProt O60674)
# KDR (human) = KDR (human) (UniProt P35968)
# KIT (human) = KIT (human) (UniProt P10721)
# LTK (human) = LTK (human) (UniProt P29376)
# MAP3K10 (human) = MAP3K10 (human) (UniProt Q02779)
# MAPK12 (human) = MAPK12 (human) (UniProt P53778)
# MAPKAPK3 (human) = MAPKAPK3 (human) (UniProt Q16644)
# MARK2 (human) = MARK2 (human) (UniProt Q7KZI7)
# MARK4 (human) = MARK4 (human) (UniProt Q96L34)
# OXSR1 (human) = OXSR1 (human) (UniProt O95747)
# PBK (human) = PBK (human) (UniProt Q96KB5)
# PDGFRA (human) = PDGFRA (human) (UniProt P16234)
# PIM1 (human) = PIM1 (human) (UniProt P11309)
# PIM2 (human) = PIM2 (human) (UniProt Q9P1W9)
# PIM3 (human) = PIM3 (human) (UniProt Q86V86)
# PKN2 (human) = PKN2 (human) (UniProt Q16513)
# PLK2 (human) = PLK2 (human) (UniProt Q9NYY3)
# PNCK (human) = PNCK (human) (UniProt Q6P2M8)
# PRKCG (human) = PRKCG (human) (UniProt P05129)
# PTK2 (human) = PTK2 (human) (UniProt Q05397)
# RIPK2 (human) = RIPK2 (human) (UniProt O43353)
# [1] = tested on: SGK1 (human), O00141 [S422D]
# SGK2 (human) = SGK2 (human) (UniProt Q9HBY8)
# SRPK3 (human) = SRPK3 (human) (UniProt Q9UPE1)
# STK3 (human) = STK3 (human) (UniProt Q13188)
# [2] = target: TYK2 JH1 catalytic (human) (UniProt P29597)
# WEE1 (human) = WEE1 (human) (UniProt P30291)
# WNK2 (human) = WNK2 (human) (UniProt Q9Y3S1)
# Chain of PDGFRA (human) (P16234 whole entry, looked up): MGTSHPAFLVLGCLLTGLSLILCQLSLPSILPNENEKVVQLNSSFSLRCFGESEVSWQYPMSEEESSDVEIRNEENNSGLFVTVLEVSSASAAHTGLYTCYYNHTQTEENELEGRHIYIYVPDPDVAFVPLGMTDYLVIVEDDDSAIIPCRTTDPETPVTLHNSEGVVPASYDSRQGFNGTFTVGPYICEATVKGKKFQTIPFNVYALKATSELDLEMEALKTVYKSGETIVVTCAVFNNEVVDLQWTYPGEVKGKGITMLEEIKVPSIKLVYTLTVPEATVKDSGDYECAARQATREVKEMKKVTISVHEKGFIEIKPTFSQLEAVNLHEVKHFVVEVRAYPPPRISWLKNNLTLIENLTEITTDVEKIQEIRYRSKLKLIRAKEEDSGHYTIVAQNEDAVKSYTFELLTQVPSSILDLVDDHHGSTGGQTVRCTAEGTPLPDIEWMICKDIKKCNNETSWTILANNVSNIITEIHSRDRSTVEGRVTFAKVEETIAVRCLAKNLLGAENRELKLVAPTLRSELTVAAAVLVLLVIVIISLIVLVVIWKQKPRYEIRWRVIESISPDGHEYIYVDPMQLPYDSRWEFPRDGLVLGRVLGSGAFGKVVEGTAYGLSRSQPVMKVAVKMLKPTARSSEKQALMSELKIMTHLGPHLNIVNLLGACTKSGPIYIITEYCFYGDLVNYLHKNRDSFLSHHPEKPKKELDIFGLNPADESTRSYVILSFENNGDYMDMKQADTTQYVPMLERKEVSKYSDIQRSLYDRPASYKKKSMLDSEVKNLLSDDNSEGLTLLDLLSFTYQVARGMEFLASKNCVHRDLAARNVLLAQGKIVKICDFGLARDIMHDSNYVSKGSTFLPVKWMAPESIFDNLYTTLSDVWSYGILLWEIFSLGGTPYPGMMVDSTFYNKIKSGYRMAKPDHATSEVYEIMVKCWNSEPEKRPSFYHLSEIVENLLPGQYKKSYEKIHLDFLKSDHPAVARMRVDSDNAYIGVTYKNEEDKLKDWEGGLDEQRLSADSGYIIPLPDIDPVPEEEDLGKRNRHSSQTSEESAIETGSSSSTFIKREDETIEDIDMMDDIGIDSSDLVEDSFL
# Chain of PKN2 (human) (Q16513 whole entry, looked up): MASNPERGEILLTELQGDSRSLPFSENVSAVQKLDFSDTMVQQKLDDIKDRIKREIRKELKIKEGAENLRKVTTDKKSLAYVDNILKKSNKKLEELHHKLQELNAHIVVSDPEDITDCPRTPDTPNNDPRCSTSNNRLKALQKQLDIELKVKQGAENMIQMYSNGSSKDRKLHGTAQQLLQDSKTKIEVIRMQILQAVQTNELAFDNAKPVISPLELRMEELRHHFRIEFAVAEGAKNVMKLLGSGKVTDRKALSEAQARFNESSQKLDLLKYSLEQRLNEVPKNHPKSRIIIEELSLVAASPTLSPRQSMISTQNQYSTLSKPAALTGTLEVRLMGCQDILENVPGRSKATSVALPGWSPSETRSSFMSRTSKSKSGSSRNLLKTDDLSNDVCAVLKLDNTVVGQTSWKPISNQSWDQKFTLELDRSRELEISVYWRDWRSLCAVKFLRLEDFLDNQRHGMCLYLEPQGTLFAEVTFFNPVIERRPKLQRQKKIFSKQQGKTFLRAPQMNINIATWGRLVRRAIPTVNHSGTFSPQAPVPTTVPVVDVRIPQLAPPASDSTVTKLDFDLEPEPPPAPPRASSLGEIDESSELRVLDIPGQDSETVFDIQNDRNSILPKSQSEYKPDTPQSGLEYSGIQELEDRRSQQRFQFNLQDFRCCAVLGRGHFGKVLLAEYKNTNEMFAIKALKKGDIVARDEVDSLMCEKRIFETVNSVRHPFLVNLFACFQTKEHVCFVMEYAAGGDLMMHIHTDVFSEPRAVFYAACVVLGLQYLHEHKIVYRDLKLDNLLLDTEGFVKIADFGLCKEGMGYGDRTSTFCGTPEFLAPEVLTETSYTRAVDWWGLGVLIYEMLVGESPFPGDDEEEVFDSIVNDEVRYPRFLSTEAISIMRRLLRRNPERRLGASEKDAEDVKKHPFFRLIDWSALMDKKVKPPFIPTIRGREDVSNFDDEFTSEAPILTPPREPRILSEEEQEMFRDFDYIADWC
# Chain of PNCK (human) (Q6P2M8 whole entry, looked up): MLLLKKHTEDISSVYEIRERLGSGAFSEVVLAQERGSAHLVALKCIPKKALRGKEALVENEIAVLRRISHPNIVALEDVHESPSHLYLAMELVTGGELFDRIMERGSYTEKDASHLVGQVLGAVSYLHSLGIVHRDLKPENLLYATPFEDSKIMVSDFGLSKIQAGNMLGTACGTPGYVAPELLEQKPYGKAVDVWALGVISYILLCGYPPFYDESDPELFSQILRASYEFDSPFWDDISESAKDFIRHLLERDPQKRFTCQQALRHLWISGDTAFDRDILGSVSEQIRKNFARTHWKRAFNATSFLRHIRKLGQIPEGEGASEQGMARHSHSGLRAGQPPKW
# Chain of MARK2 (human) (Q7KZI7 whole entry, looked up): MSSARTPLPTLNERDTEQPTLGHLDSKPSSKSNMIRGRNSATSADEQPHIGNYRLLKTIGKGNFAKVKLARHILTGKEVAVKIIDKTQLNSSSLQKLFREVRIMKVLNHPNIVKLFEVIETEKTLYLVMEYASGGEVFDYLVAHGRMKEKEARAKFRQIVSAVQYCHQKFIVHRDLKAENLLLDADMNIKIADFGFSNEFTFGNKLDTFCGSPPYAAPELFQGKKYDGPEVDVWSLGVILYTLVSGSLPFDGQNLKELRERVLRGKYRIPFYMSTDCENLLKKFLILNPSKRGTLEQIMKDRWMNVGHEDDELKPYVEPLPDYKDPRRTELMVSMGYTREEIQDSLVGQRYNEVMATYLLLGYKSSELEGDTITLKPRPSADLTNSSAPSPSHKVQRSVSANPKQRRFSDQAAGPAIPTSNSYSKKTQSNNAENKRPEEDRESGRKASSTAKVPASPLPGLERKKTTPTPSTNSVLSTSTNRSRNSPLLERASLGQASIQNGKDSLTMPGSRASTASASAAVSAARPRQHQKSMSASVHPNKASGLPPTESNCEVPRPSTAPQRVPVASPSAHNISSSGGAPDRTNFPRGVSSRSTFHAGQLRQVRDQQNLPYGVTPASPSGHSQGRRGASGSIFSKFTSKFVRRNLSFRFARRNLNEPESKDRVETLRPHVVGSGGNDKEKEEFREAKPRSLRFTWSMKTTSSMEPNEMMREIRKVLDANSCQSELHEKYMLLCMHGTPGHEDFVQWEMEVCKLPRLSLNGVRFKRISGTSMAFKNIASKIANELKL
# Chain of CAMK2A (human) (Q9UQM7 whole entry, looked up): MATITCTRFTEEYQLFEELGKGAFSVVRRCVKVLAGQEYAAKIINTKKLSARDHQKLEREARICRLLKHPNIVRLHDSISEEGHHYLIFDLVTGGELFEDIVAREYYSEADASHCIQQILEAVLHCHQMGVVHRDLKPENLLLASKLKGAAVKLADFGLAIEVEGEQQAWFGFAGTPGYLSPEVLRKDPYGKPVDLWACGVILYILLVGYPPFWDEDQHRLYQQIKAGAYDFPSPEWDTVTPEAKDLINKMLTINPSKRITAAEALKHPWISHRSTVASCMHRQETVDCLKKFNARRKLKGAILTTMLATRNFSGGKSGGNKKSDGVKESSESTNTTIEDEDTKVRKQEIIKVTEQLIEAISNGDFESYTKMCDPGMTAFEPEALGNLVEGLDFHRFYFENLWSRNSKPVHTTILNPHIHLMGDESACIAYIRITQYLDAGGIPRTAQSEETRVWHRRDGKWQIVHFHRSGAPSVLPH
# Chain of WEE1 (human) (P30291 whole entry, looked up): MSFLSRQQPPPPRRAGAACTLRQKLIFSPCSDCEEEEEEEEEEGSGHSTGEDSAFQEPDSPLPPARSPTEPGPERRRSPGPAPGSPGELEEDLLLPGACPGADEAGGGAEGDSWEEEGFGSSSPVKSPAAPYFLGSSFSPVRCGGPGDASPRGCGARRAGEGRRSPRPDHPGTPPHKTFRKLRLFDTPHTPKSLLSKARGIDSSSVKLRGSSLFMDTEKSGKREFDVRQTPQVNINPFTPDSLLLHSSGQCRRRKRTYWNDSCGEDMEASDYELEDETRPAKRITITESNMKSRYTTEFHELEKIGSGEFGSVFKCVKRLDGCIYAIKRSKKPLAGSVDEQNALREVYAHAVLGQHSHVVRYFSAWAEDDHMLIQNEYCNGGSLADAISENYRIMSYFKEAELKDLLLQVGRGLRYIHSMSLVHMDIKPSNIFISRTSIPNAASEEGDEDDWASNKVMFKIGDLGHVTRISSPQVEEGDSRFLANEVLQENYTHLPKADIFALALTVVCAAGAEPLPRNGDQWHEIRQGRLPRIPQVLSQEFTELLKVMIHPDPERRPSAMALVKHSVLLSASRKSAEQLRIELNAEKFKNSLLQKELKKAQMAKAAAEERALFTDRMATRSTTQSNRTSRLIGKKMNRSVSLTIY
# Chain of BLK (human) (P51451 whole entry, looked up): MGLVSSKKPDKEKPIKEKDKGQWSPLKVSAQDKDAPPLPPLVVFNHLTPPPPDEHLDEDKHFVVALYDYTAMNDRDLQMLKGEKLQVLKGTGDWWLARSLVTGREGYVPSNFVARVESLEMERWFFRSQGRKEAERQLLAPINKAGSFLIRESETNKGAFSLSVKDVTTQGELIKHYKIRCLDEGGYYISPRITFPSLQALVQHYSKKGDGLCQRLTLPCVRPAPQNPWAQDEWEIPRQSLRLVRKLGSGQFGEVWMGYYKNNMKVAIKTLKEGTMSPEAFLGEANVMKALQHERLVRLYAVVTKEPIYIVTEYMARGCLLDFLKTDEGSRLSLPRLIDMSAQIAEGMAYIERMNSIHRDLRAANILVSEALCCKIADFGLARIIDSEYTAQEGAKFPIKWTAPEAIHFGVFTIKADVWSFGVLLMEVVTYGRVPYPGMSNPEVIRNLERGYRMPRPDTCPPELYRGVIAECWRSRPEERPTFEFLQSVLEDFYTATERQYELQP
compound,measurement,setting,value
c1ccc(-c2cnc(Nc3ccc(OCCN4CCCC4)cc3)s2)cc1,residual activity,AKT1 (human),101%
same,residual activity,BLK (human),92%
same,residual activity,CAMK2A (human),62.9%
same,residual activity,CAMK2G (human),66.9%
same,residual activity,CDC42BPB (human),96.7%
same,residual activity,CDK3 CCNE1 (human),97.6%
same,residual activity,CSNK1G2 (human),100%
same,residual activity,DAPK1 (human),95.1%
same,residual activity,DCLK2 (human),87.6%
same,residual activity,DMPK (human),110%
same,residual activity,FES (human),93.2%
same,residual activity,FLT3 (human),3.1%
same,residual activity,GSK3A (human),99.2%
same,residual activity,HIPK3 (human),64.8%
same,residual activity,JAK2 JH1 JH2 (human),92.7%
same,residual activity,KDR (human),76.1%
same,residual activity,KIT (human),20.3%
same,residual activity,LTK (human),93.8%
same,residual activity,MAP3K10 (human),95.7%
same,residual activity,MAPK12 (human),93.6%
same,residual activity,MAPKAPK3 (human),97.6%
same,residual activity,MARK2 (human),88%
same,residual activity,MARK4 (human),58.9%
same,residual activity,OXSR1 (human),85.3%
same,residual activity,PBK (human),108%
same,residual activity,PDGFRA (human),57.4%
same,residual activity,PIM1 (human),100%
same,residual activity,PIM2 (human),108%
same,residual activity,PIM3 (human),120%
same,residual activity,PKN2 (human),97%
same,residual activity,PLK2 (human),105%
same,residual activity,PNCK (human),99.8%
same,residual activity,PRKCG (human),92.5%
same,residual activity,PTK2 (human),98.3%
same,residual activity,RIPK2 (human),50.4%
same,residual activity,[1],83.6%
same,residual activity,SGK2 (human),101%
same,residual activity,SRPK3 (human),98.2%
same,residual activity,STK3 (human),108%
same,residual activity,[2],106%
same,residual activity,WEE1 (human),92%
same,residual activity,WNK2 (human),119%
N#CCCc1ccc2c(c1)-c1[nH]c3ccc([N+](=O)[O-])cc3c1CC(=O)N2,residual activity,AKT1 (human),111%
same,residual activity,BLK (human),78.8%
same,residual activity,CAMK2A (human),69.1%
same,residual activity,CAMK2G (human),66%
same,residual activity,CDC42BPB (human),54.1%
same,residual activity,CDK3 CCNE1 (human),39.7%
same,residual activity,CSNK1G2 (human),84.8%
same,residual activity,DAPK1 (human),96.5%
same,residual activity,DCLK2 (human),104%
same,residual activity,DMPK (human),89.8%
same,residual activity,FES (human),37.9%
same,residual activity,FLT3 (human),15.1%
same,residual activity,GSK3A (human),0.804%
same,residual activity,HIPK3 (human),104%
same,residual activity,JAK2 JH1 JH2 (human),93%
same,residual activity,KDR (human),75.5%
same,residual activity,KIT (human),76.6%
same,residual activity,LTK (human),80%
same,residual activity,MAP3K10 (human),30%
same,residual activity,MAPK12 (human),98.9%
same,residual activity,MAPKAPK3 (human),96.8%
same,residual activity,MARK2 (human),65.5%
same,residual activity,MARK4 (human),62.5%
same,residual activity,OXSR1 (human),94.6%
same,residual activity,PBK (human),95.4%
same,residual activity,PDGFRA (human),87.4%
same,residual activity,PIM1 (human),93.6%
same,residual activity,PIM2 (human),104%
same,residual activity,PIM3 (human),70.9%
same,residual activity,PKN2 (human),77.9%
same,residual activity,PLK2 (human),99%
same,residual activity,PNCK (human),107%
same,residual activity,PRKCG (human),93.3%
same,residual activity,PTK2 (human),82.2%
same,residual activity,RIPK2 (human),21.5%
same,residual activity,[1],87.9%
same,residual activity,SGK2 (human),114%
same,residual activity,SRPK3 (human),94.6%
same,residual activity,STK3 (human),40.9%
same,residual activity,[2],48.1%
same,residual activity,WEE1 (human),100%
same,residual activity,WNK2 (human),112%
CCOc1cc2ncnc(Nc3cccc(Br)c3)c2cc1OCC,residual activity,AKT1 (human),112%
same,residual activity,BLK (human),74.9%
same,residual activity,CAMK2A (human),103%
same,residual activity,CAMK2G (human),96.5%
same,residual activity,CDC42BPB (human),107%
same,residual activity,CDK3 CCNE1 (human),95.2%
same,residual activity,CSNK1G2 (human),103%
same,residual activity,DAPK1 (human),77.4%
same,residual activity,DCLK2 (human),99.5%
same,residual activity,DMPK (human),102%
same,residual activity,FES (human),96.8%
same,residual activity,FLT3 (human),29%
same,residual activity,GSK3A (human),110%
same,residual activity,HIPK3 (human),102%
same,residual activity,JAK2 JH1 JH2 (human),99%
same,residual activity,KDR (human),92%
same,residual activity,KIT (human),74.4%
same,residual activity,LTK (human),69.7%
same,residual activity,MAP3K10 (human),93.2%
same,residual activity,MAPK12 (human),105%
same,residual activity,MAPKAPK3 (human),87.4%
same,residual activity,MARK2 (human),94.5%
same,residual activity,MARK4 (human),99.2%
same,residual activity,OXSR1 (human),102%
same,residual activity,PBK (human),102%
same,residual activity,PDGFRA (human),84.7%
same,residual activity,PIM1 (human),92.1%
same,residual activity,PIM2 (human),98.9%
same,residual activity,PIM3 (human),105%
same,residual activity,PKN2 (human),90%
same,residual activity,PLK2 (human),99.8%
same,residual activity,PNCK (human),103%
same,residual activity,PRKCG (human),83%
same,residual activity,PTK2 (human),101%
same,residual activity,RIPK2 (human),39.8%
same,residual activity,[1],120%
same,residual activity,SGK2 (human),106%
same,residual activity,SRPK3 (human),93.5%
same,residual activity,STK3 (human),99.5%
same,residual activity,[2],107%
same,residual activity,WEE1 (human),97.9%
same,residual activity,WNK2 (human),95.8%
N#Cc1c(NC(=O)c2cccc3ccccc23)sc2c1CCCC2,residual activity,AKT1 (human),101%
same,residual activity,BLK (human),105%
same,residual activity,CAMK2A (human),104%
same,residual activity,CAMK2G (human),99.6%
same,residual activity,CDC42BPB (human),98%
same,residual activity,CDK3 CCNE1 (human),99.2%
same,residual activity,CSNK1G2 (human),103%
same,residual activity,DAPK1 (human),109%
same,residual activity,DCLK2 (human),96.5%
same,residual activity,DMPK (human),109%
same,residual activity,FES (human),103%
same,residual activity,FLT3 (human),111%
same,residual activity,GSK3A (human),97.2%
same,residual activity,HIPK3 (human),116%
same,residual activity,JAK2 JH1 JH2 (human),103%
same,residual activity,KDR (human),100%
same,residual activity,KIT (human),84.2%
same,residual activity,LTK (human),102%
same,residual activity,MAP3K10 (human),85.4%
same,residual activity,MAPK12 (human),95.6%
same,residual activity,MAPKAPK3 (human),102%
same,residual activity,MARK2 (human),105%
same,residual activity,MARK4 (human),101%
same,residual activity,OXSR1 (human),103%
same,residual activity,PBK (human),116%
same,residual activity,PDGFRA (human),101%
same,residual activity,PIM1 (human),105%
same,residual activity,PIM2 (human),104%
same,residual activity,PIM3 (human),95.3%
same,residual activity,PKN2 (human),103%
same,residual activity,PLK2 (human),101%
same,residual activity,PNCK (human),104%
same,residual activity,PRKCG (human),95.4%
same,residual activity,PTK2 (human),101%
same,residual activity,RIPK2 (human),81.3%
same,residual activity,[1],108%
same,residual activity,SGK2 (human),101%
same,residual activity,SRPK3 (human),95.7%
same,residual activity,STK3 (human),111%
same,residual activity,[2],100%
same,residual activity,WEE1 (human),88.9%
same,residual activity,WNK2 (human),109%
